Data reported in article PMC2812605 (Biochemical pharmacology, 2009).

Molecular target: T1, P2Y14 receptor (Rattus norvegicus, UniProt O35881)
T1 sequence (O35881 1-305): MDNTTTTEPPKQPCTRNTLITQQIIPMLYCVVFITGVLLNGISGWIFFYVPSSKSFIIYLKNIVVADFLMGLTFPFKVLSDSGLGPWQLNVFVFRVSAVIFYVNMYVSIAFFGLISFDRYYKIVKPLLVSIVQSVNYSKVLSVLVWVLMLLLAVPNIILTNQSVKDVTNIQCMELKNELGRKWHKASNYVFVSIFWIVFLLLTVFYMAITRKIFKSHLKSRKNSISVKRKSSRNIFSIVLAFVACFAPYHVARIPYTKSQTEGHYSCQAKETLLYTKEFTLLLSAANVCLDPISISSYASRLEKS
Assay: agonist-stimulated […]GTPγS binding to RBL-2H3 membranes
Assay type: biochemical

EC50: 8.1 ± 1.6 nM
SMILES: O=c1ccn([C@@H]2O[C@H](COP(=O)(O)OP(=O)(O)O[C@H]3O[C@H](CO)[C@@H](O)[C@H](O)[C@H]3O)[C@@H](O)[C@H]2O)c(=S)[nH]1 [MRS2690, diphosphoric acid 1-α-D-glucopyranosyl ester 2-(2-thiouridin-5’’-yl) ester]
